{"source": "patent US8609644B2", "about": "“Amino derivatives of androstanes and androstenes as medicaments for cardiovascular disorders” (priority 2006, dated 2013)", "note": "Structures can show the parent of a compound that is named as a salt.", "data": [{"biological_target": "Na+, K+-ATPase (Canis lupus familiaris, UniProt P50997)", "assay": "biochemical", "parameters": "species or system dog", "conditions": "Na+, K+-ATPase Inhibition IC50", "units": {"IC50": "nM"}, "values": [{"smiles": "C=C1C[C@@H]2[C@H](CC[C@]3(C)C(=O)CC[C@@H]23)[C@@]2(C)CC/C(=N\\OCCCNC)C[C@H]12", "note": "[I-cj, (E) 3-(3-N-Methylaminopropoxyimino)-6-methyleneandrostan-17-one fumarate]", "IC50": 380}, {"smiles": "C[C@]12CCC(=NOCCN)C[C@@H]1C(=C(F)F)C[C@@H]1[C@@H]2CC[C@]2(C)C(=O)CC[C@@H]12", "note": "(mixture of isomers) [I-bh, (E,Z) 3-(2-Aminoethoxyimino)-6-difluoromethyleneandrostan-17-one hydrochloride]", "IC50": 190}, {"smiles": "C=C1CC2C3CCC(=O)C3(C)CCC2C2(C)CCC(=NOCCCNC)CC12", "note": "(mixture of isomers) [I-ck, (E,Z) 3-(3-N-Methylaminopropoxyimino)-6-methyleneandrostane-17-one fumarate]", "IC50": 570}, {"smiles": "C=C1C[C@H]2[C@@H]3CCC(=O)[C@@]3(C)CC[C@@H]2[C@@]2(C)CCC(=NOCCNC)C[C@]12O", "note": "(mixture of isomers) [I-cg, (E,Z) 3-(2-N-Methylaminoethoxyimino)-5α-hydroxy-6-methylenandrostan-17-one hydrochloride]", "IC50": 2600}, {"smiles": "C=CC1CC2C3CCC(=O)C3(C)CCC2C2(C)CCC(=NOCCN)CC12", "note": "(stereo not drawn) [I-al, (E,Z) 3-(2-Aminoethoxyimino)-6α-vinylandrostan-17-one hydrochloride]", "IC50": 530}]}, {"biological_target": "Na+, K+-ATPase (Canis lupus familiaris, UniProt P50997)", "assay": "biochemical", "parameters": "species or system dog", "conditions": "dog kidney enzyme; read-out: Na+, K+-ATPase Inhibition IC50", "units": {"IC50": "nM"}, "values": [{"smiles": "CNCCCON=C1CCC2(C)C(C1)C(C(=O)OC)CC1C3CCC(=O)C3(C)CCC12", "note": "(mixture of isomers) [I-cm, (Z,E) 3-(3-N-Methylaminopropoxyimino)-6α-methoxycarbonylandrostan-17-one hydrochloride]", "IC50": 4000}, {"smiles": "COC(=O)C=C1CC2C3CCC(=O)C3(C)CCC2C2(C)CCC(=NOCCN)CC12", "note": "(mixture of isomers) [I-bk, Methyl [3-(E,Z)-(2-aminoethoxyimino)-17-oxoandrostane-6-(E)-ylidene]-acetate hydrochloride]", "IC50": 64000}, {"smiles": "CC12CCC3C(CC(CO)C4CC(=NOCCN)CCC43C)C1CCC2=O", "note": "(single isomer, unassigned) [I-aj, (E,Z) 3-(2-Aminoethoxyimino)-6β-hydroxymethylandrostan-17-one hydrochloride]", "IC50": 1600}, {"smiles": "CC12CCC3C(CC4(OCCO4)C4CC(=NOCCN)CCC34C)C1CCC2=O", "note": "(mixture of isomers) [I-ag, (E,Z) 3-(2-Aminoethoxyimino)-6-(2-spiro-1,3-dioxolane)androstane-17-one fumarate]", "IC50": 5400}, {"smiles": "CCON=C1CC2C3CCC(=O)C3(C)CCC2C2(C)CCC(=NOCCN)CC12", "note": "(mixture of isomers) [I-ax, (E,Z)-3-(2-Aminoethoxyimino)-6-(E)-ethoxyiminoandrostan-17-one hydrochloride]", "IC50": 1700}, {"smiles": "CNCCCON=C1CCC2(C)C(C1)C(CO)C(O)C1C3CCC(=O)C3(C)CCC12", "note": "(mixture of isomers) [I-ek, (E,Z) 3-(3-N-Methylaminopropoxyimino)-6α-hydroxymethyl-7α-hydroxyandrostane-17-one hydrochloride]", "IC50": 320}, {"smiles": "CNCCCON=C1CCC2(C)C(C1)CC1(CC1)C1C3CCC(=O)C3(C)CCC12", "note": "(mixture of isomers) [I-cv, (E,Z) 3-(3-N-Methylaminopropoxyimino)-7-(spirocyclopropane)androstan-17-one hydrochloride]", "IC50": 740}, {"smiles": "COCC1CC2C3CCC(=O)C3(C)CCC2C2(C)CCC(=NOCCN)CC12", "note": "(mixture of isomers) [I-ak, (E,Z) 3-(2-Aminoethoxyimino)-6β-methoxymethylandrostan-17-one hydrochloride]", "IC50": 3000}, {"smiles": "C=CCON=C1CC2C3CCC(=O)C3(C)CCC2C2(C)CCC(=NOCCN)CC12", "note": "(stereo not shown) [I-ay, (E,Z)-3-(2-Aminoethoxyimino)-6-(E)-allyloxyiminoandrostan-17-one fumarate]", "IC50": 43000}, {"smiles": "CC12CCC3C(CC(CNC=O)C4CC(=NOCCN)CCC43C)C1CCC2=O", "note": "(mixture of isomers) [I-bn, (E,Z) 3-(2-Aminoethoxyimino)-6α-formamidomethylandrostane-17-one hydrochloride]", "IC50": 5100}, {"smiles": "C=C1C[C@@H]2[C@H](CC[C@]3(C)C(=O)CC[C@@H]23)[C@@]2(C)CC[C@@H](SCCCNC)C[C@H]12", "note": "[I-ea, 3α-(3-N-Methylaminopropylthio)-6-methyleneandrostane-17-one fumarate]", "IC50": 2800}, {"smiles": "COCC1CC2CC(=NOCCN)CCC2(C)C2CCC3(C)C(=O)CCC3C12", "note": "(mixture of isomers) [I-ed, (E,Z) 3-(2-Aminoethoxyimino)-7α-methoxymethylandrostane-17-one hydrochloride]", "IC50": 38000}, {"smiles": "CC12CCC3C(CC(O[N+](=O)[O-])C4CC(=NOCCN)CCC43C)C1CCC2=O", "note": "(single isomer, unassigned) [I-aa, (E,Z) 3-(2-Aminoethoxyimino)-17-oxoandrostane-6α-yl nitrate fumarate]", "IC50": 330}, {"smiles": "COC[C@H]1C[C@@H]2[C@H](CC[C@]3(C)C(=O)CC[C@@H]23)[C@@]2(C)CC/C(=N\\OCCN)CC12", "note": "(stereo partly drawn) [I-aq, (E) 3-(2-Aminoethoxyimino)-6α-methoxymethylandrostan-17-one hydrochloride]", "IC50": 500}, {"smiles": "C[C@]12CCC(=NOCCN)C[C@@H]1[C@]1(CO1)C[C@@H]1[C@@H]2CC[C@]2(C)C(=O)CC[C@@H]12", "note": "(mixture of isomers) [I-bb, (E,Z)-3-(2-Aminoethoxyimino)androstane-6(S)-(spiro-2′-oxirane)-17-one hydrochloride]", "IC50": 870}, {"smiles": "COC(=O)C1CC2C3CCC(=O)C3(C)CCC2C2(C)CCC(=NOCCN)CC12", "note": "(mixture of isomers) [I-au, (E,Z) 3-(2-Aminoethoxyimino)-6α-methoxycarbonylandrostan-17-one hydrochloride]", "IC50": 410}]}, {"biological_target": "Na+, K+-ATPase (Canis lupus familiaris, UniProt P50997)", "assay": "biochemical", "parameters": "species or system dog", "conditions": "read-out: Na+, K+-ATPase Inhibition IC50", "units": {"IC50": "nM"}, "values": [{"smiles": "C[C@]12CCC(=NOCCN)CC1[C@@H](C=NO)C[C@@H]1[C@@H]2CC[C@]2(C)C(=O)CC[C@@H]12", "note": "(stereo partly drawn) [I-an, 3-(E,Z)-(2-Aminoethoxyimino)-17-oxoandrostane-6α-carbaldehyde (E,Z)-oxime fumarate]", "IC50": 390}, {"smiles": "CNCCON=C1CC[C@@]2(C)C(C1)C(=NOC)C[C@@H]1[C@@H]2CC[C@]2(C)C(=O)CC[C@@H]12", "note": "(stereo partly shown) [I-ce, (E,Z) 3-(2-N-Methylaminoethoxyimino)-6-(E)-methoxyiminoandrostan-17-one hydrochloride]", "IC50": 650}, {"smiles": "C=C1C[C@@H]2[C@H](CC[C@]3(C)C(=O)CC[C@@H]23)[C@@]2(C)CC[C@@H]([S@@+]([O-])CCCN)CC12", "note": "(stereo partly drawn) [I-eb, 3α-[(S)-3-Aminopropylsulfinyl]-6-methyleneandrostane-17-one fumarate]", "IC50": 7200}, {"smiles": "C[C@]12CCC(=NOCCN)CC1C[C@H](CO)[C@@H]1[C@@H]2CC[C@]2(C)C(=O)CC[C@@H]12", "note": "(stereo partly drawn) [I-ca, (E,Z) 3-(2-Aminoethoxyimino)-7β-hydroxymethylandrostane-17-one hydrochloride]", "IC50": 910}, {"smiles": "C[C@]12CC[C@H](/C=C\\CCN)CC1/C(=N/O)C[C@@H]1[C@@H]2CC[C@]2(C)C(=O)CC[C@@H]12", "note": "(stereo partly drawn) [I-de, 3β-(4-Aminobut-1-(Z)-enyl)-6-(E)-hydroxyiminoandrostane-17-one fumarate]", "IC50": 1200}, {"smiles": "CC12CCC3C(CC(C(N)=O)C4CC(=NOCCN)CCC43C)C1CCC2=O", "note": "(mixture of isomers) [I-at, (E,Z) 3-(2-Aminoethoxyimino)-6α-carbamoylandrostan-17-one fumarate]", "IC50": 630}, {"smiles": "C[C@]12CCC(=NOCCN)CC1C1(CC1)C[C@@H]1[C@@H]2CC[C@]2(C)C(=O)CC[C@@H]12", "note": "(stereo partly shown) [I-bl, E,Z) 3-(2-Aminoethoxyimino)-6-(spirocyclopropane)androstane-17-one hydrochloride]", "IC50": 850}]}]}
